How the values were obtained:
[1] = test system: Human immunodeficiency virus 1; assay: Antiviral activity against wild type HIV1 NL4-3 habouring Gag protein V370A mutant infected in human MT2 cells after 4 to 5 days by dual-luciferase reporter gene assay; type: functional, organism-based; conditions: Human immunodeficiency virus 1, NL4-3, MT2
[2] = Plasma concentration in cannula implanted rat at 5 mg/kg administered through oral gavage after 24 hrs by LC-MS/MS analysis; type: ADME, organism-based
[3] = test system: Human immunodeficiency virus 1; assay: Antiviral activity against wild type HIV1 NL4-3 infected in human MT2 cells after 4 to 5 days by dual-luciferase reporter gene assay; type: functional, organism-based; conditions: Human immunodeficiency virus 1, NL4-3, MT2
[4] = Metabolic stability in human liver microsomes at 0.5 uM by LC-MS/MS analysis in presence of NADPH; type: ADME
[5] = Cmax in cannula implanted rat at 5 mg/kg administered through oral gavage after 24 hrs by LC-MS/MS analysis; type: ADME, organism-based; set-up: dose 5 mg/kg, route oral; conditions: in vivo
[6] = (§1) Total AUC in cannula implanted rat at 5 mg/kg administered through oral gavage after 24 hrs by LC-MS/MS analysis; type: ADME, organism-based; set-up: dose 5 mg/kg, time AUCmax, route oral; conditions: in vivo
[7] = AUC (0 to 6 hrs) in cannula implanted rat at 5 mg/kg administered through oral gavage after 24 hrs by LC-MS/MS analysis; type: ADME, organism-based; set-up: dose 5 mg/kg, time < 6 hr, route oral; conditions: in vivo
[8] = test system: Human immunodeficiency virus 1; assay: Antiviral activity against wild type BVM-resistant HIV1 NL4-3 habouring Gag protein delta T371 infected in human MT2 cells after 4 to 5 days by dual-luciferase reporter gene assay; type: functional, organism-based; conditions: Human immunodeficiency virus 1, NL4-3, MT2
[9] = test system: Human immunodeficiency virus 1; assay: Antiviral activity against wild type BVM-resistant HIV1 NL4-3 habouring Gag protein V370M mutant infected in human MT2 cells after 4 to 5 days by dual-luciferase reporter gene assay; type: functional, organism-based; conditions: Human immunodeficiency virus 1, NL4-3, MT2
in vivo = conditions: rat, iv, 1 mg/kg
Description: Volume of distribution at steady state in cannula implanted rat at 1 mg/kg, iv by LC-MS/MS analysis

[10] = Metabolic stability in rat liver microsomes at 0.5 uM by LC-MS/MS analysis in presence of NADPH; type: ADME
[11] = test system: Human immunodeficiency virus 1; assay: Antiviral activity against wild type BVM-resistant HIV1 NL4-3 habouring Gag protein T371A mutant infected in human MT2 cells after 4 to 5 days by dual-luciferase reporter gene assay; type: functional, organism-based; conditions: Human immunodeficiency virus 1, NL4-3, MT2
[12] = Cytotoxicity against human MT2 cells; type: cell-based
[13] = test system: Human immunodeficiency virus 1; assay: Antiviral activity against wild type HIV1 NL4-3 habouring Gag protein delta V370 infected in human MT2 cells after 4 to 5 days by dual-luciferase reporter gene assay; type: functional, organism-based; conditions: Human immunodeficiency virus 1, NL4-3, MT2
[14] = Plasma clearance in cannula implanted rat at 1 mg/kg, iv by LC-MS/MS analysis; type: ADME, organism-based
[15] = Bioavailability in cannula implanted rat at 5 mg/kg administered through oral gavage after 24 hrs by LC-MS/MS analysis; type: ADME, organism-based; conditions: in vivo
[16] = test system: Human immunodeficiency virus 1; assay: Antiviral activity against wild type HIV1 NL4-3 infected in human MT2 cells after 4 to 5 days by dual-luciferase reporter gene assay in presence of human serum albumin; type: functional, organism-based; conditions: Human immunodeficiency virus 1, NL4-3, MT2
Rattus norvegicus = assay: as §1; type: ADME, organism-based; set-up: dose 5 mg/kg, time AUCmax, route oral; conditions: in vivo, 24 h

Structure (SMILES) | EC50 [1] | concentration at 24 h [2] | EC50 [3] | half-life at 0.5 µM [4] | Cmax [5] | AUC at 24 h [6] | AUC(0-t) at 6 h [7] | EC50 [8] | EC50 [9] | Vd (in vivo) | half-life at 0.5 µM [10] | EC50 [11] | CC50 [12] | EC50 [13] | clearance [14] | bioavailability [15] | EC50 [16] | AUC (Rattus norvegicus)
C=C(C)[C@@H]1CC[C@]2(C(=O)NCCc3ccccn3)CC[C@]3(C)[C@H](CC[C@@H]4[C@@]5(C)CC=C(c6ccc(C(=O)O)cc6)C(C)(C)[C@@H]5CC[C@]43C)[C@@H]12 | 19 nM | 5 nM | 15 nM | 43 min | 172 nM | 1.23 µM·h | 0.721 µM·h | 38 nM | 61 nM | 1.1 L/kg | > 120 min | 19 nM | 8 µM | 415 nM | 3.2 mL/min/kg | 3% |  | 
C=C(C)[C@@H]1CC[C@]2(C(=O)N(C)CCN(C)C)CC[C@]3(C)[C@H](CC[C@@H]4[C@@]5(C)CC=C(c6ccc(C(=O)O)cc6)C(C)(C)[C@@H]5CC[C@]43C)[C@@H]12 | 38 nM | 108 nM | 6 nM | > 120 min | 386 nM | 6.87 µM·h | 1.42 µM·h |  |  |  | 85 min |  | 3 µM | 25 nM | 2.2 mL/min/kg | 11% | 17 nM | 
C=C(C)[C@@H]1CC[C@]2(C(=O)NCCC(=O)O)CC[C@]3(C)[C@H](CC[C@@H]4[C@@]5(C)CC=C(c6ccc(C(=O)O)cc6)C(C)(C)[C@@H]5CC[C@]43C)[C@@H]12 | 427 nM | 137 nM | 37 nM | 113 min | 9470 nM | 79.9 µM·h | 43.2 µM·h |  |  | 0.02 L/kg | > 120 min |  | 36 µM | > 4000 nM | 1.2 mL/min/kg | 71% | 449 nM | 
C=C(C)[C@@H]1CC[C@]2(C(=O)NCCN(C)C)CC[C@]3(C)[C@H](CC[C@@H]4[C@@]5(C)CC=C(c6ccc(C(=O)O)cc6)C(C)(C)[C@@H]5CC[C@]43C)[C@@H]12 |  |  |  | > 120 min | 396 nM |  | 1.62 µM·h | 3 nM | 10 nM | 2.3 L/kg | > 120 min | 3 nM | 3 µM | 31 nM | 6.1 mL/min/kg | 17% |  | 3.814 µM·h
